Reference: US6906086B2, “Methods for inhibiting bone loss” (Eli Lilly and Company, priority 1992, dated 2005)
“Also recorded” adds a separate entry of the source. Structures can show the parent of a compound that is named as a salt. Where two headings read alike, the source gives them in different places.

Legend:
[1] = tested on: ovariectomized (ovex) rats; assay: Ovariectomized rat model of post-menopausal osteoporosis: femur density by single photon absorptiometry; type: in vivo, Sprague Dawley rats; conditions: for inhibition in vivo at 1 mg/kg: Rattus norvegicus, read-out: % Inhibition of Bone Loss; for prevention of bone loss (femur density), in words: oral
Protocol: In the examples illustrating the methods, a model of post-menopausal osteoporosis was used in which effects of different treatments upon femur density were determined.
Seventy-five day old female Sprague Dawley rats (weight range of 225 to 275 g) were obtained from Charles River Laboratories (Portage, Mich.). They were housed in groups of 3 and had ad libitum access to food (calcium content approximately 1%) and water. Room temperature was maintained at 22.2°±1.7° C. with a minimum relative humidity of 40%. The photoperiod in the room was 12 hours light and 12 hours dark.
The right femurs were excised and scanned at the distal metaphysis 1 mm from the patellar groove with single photon absorptiometry. Results of the densitometer measurements represent a calculation of bone density as a function of the bone mineral content and bone width.

[2] = tested on: ovariectomized (ovex) rats; assay: Uterine wet weight in ovariectomized rats; conditions: for % Uterine Weight Gain: relative to estrogen treated ovex animals
Protocol: (§1) One week after arrival, the rats underwent bilateral ovariectomy under anesthesia (44 mg/kg Ketamine and 5 mg/kg Xylazine (Butler, Indianapolis, Ind.) administered intramuscularly). Treatment with vehicle, estrogen, or a compound of formula I was initiated on the day of surgery following recovery from anesthesia. Oral dosage was by gavage in 0.5 mL of 1% carboxymethylcellulose (CMC). Body weight was determined at the time of surgery and weekly thereafter and the dosage was adjusted with changes in body weight. Vehicle or estrogen treated ovariectomized (ovex) rats and non-ovariectomized (intact) rats were evaluated in parallel with each experimental group to serve as negative and positive controls.
(§2) The rats were treated daily for 35 days (6 rats per treatment group) and sacrificed by decapitation on the 36th day. […] At the time of sacrifice, the uteri were removed, dissected free of extraneous tissue, and the fluid contents were expelled before determination of wet weight in order to confirm estrogen deficiency associated with complete ovariectomy. […] The uteri were then placed in 10% neutral buffered formalin to allow for subsequent histological analysis.

ovariectomized rats = assay: Uterine histological parameters of estrogenicity in ovariectomized rats; conditions: for Epithelial Height / Myometrial Thickness / Stromal Eosinophils / Stromal Expansion: Table 6, ovex rats, 1 mg/kg
Protocol: A relatively narrow range of doses of raloxifene and tamoxifen was administered orally to ovariectomized rats as in the previous example.
Increases in epithelial height are a sign of estrogenicity of therapeutic agents and may be associated with increased incidence of uterine cancer.
Estrogenicity was also assessed by evaluating the adverse response of eosinophil infiltration into the stromal layer of the uterus (Table 6).

[3] = tested on: ovariectomized (ovex) rats; conditions: rat, in vivo, po
Protocol: as §1, §2

[4] = Oral administration to human subjects in the clinic: parent compound in serum
[5] = tested on: uterine uptake of tritiated-estradiol; assay: Laboratory animal studies: uterine uptake of tritiated-estradiol and uterotrophic response to estradiol; conditions: laboratory animals; conditions where raloxifene was extensively conjugated in plasma
From the text: Experiments were undertaken to address the bioavailability issue in laboratory animals where biological activity could be assessed.

[6] = Love et al. 1992; Turner et al. 1988; cited from earlier work
[7] = ovex rats, 1 mg/kg oral, relative to estrogen treated ovex animals
[8] = Table 5, ovex rats, 1 mg/kg oral

Structure (SMILES): COCC(=O)Oc1ccc(-c2sc3cc(OC(=O)COC)ccc3c2C(=O)c2ccc(OCCN3CCCCC3)cc2)cc1 [Compound 18, 6-(Methoxyethanoyloxy)-2-[4(methoxyethanoyloxy)phenyl]-benzo[b]thien-3-yl [4-[2-(piperidin-1-yl)ethoxy]phenyl]-methanone]
- inhibition in vivo at 1 mg/kg [1, 7]: 21%
- % Uterine Weight Gain ([2]; ovex rats, 1 mg/kg oral): 17%

Structure (SMILES): Cl.O=C(c1ccc(OCCN2CCCCC2)cc1)c1c(-c2ccc(O)cc2)sc2cc(O)ccc12 [raloxifene, 6-hydroxy-2-(4-hydroxyphenyl)-benzo[b]thien-3-yl-4-[2-(piperidin-1-yl)ethoxyphenyl]-methanone hydrochloride]
- Bone Density ([1]; Table 4 Experiment B, ovex rats, raloxifene 1 mg/kg alone): 198 ± 11 mg/cm/cm
- Bone Density [1, 8]: 207 ± 13 mg/cm/cm
- prevention of bone loss (femur density), in words ([1]; ovariectomized rats, hydrochloride): prevented bone loss in a dose dependent manner; also recorded: significantly reduced bone loss; also recorded: displayed the ability to prevent reduction of femur density
- effect on the protective effect of estrogen on bone density ([1]; ovariectomized rats, given in combination with ethynyl estradiol): did not appreciably reduce the protective effect of the estrogen on bone density
- Bone Density ([1]; ovex rats, 0.01 mg/kg oral, 35 days, five assays combined, thirty rats, mean ± SEM (Table 3)): 176 ± 3 mg/cm/cm
- Bone Density ([1]; ovex rats, 0.10 mg/kg oral, 35 days, five assays combined, thirty rats, mean ± SEM (Table 3)): 197 ± 3 mg/cm/cm
- Bone Density ([1]; ovex rats, 1.00 mg/kg oral, 35 days, five assays combined, thirty rats, mean ± SEM (Table 3)): 201 ± 3 mg/cm/cm
- Bone Density ([1]; ovex rats, 10.00 mg/kg oral, 35 days, five assays combined, thirty rats, mean ± SEM (Table 3)): 199 ± 3 mg/cm/cm
- Epithelial Height (ovariectomized rats): 1.67
- Myometrial Thickness (ovariectomized rats): 5.42
- Stromal Eosinophils (ovariectomized rats): 1.17
- Stromal Expansion (ovariectomized rats): 14.00
- eosinophil infiltration into the stromal layer of the uterus, in words (ovariectomized rats; ovariectomized rats): did not cause any increase
- thickness of the stroma and myometrium, in words (ovariectomized rats; ovariectomized rats): an increase in these measurements that was much less than the effect of estrogen
- total score of estrogenicity (compilation of all four parameters) (ovariectomized rats; ovariectomized rats): significantly less estrogenic than tamoxifen
- epithelial height, in words (ovariectomized rats; ovariectomized rats, oral): only at one dose was there any statistically measurable increase in epithelial height over the ovariectomized controls
- Uterine Weight ([3]; 1 mg/kg): 198 ± 9 mg
- clearance from the bloodstream [4]: cleared quickly from the bloodstream
- conjugation following oral administration [4]: extensively conjugated to the glucuronidated form
- parent compound in the serum [4]: not detected
- inhibition of the normal uterotrophic response to estradiol [5]: maximally active
- inhibition of uterine uptake of tritiated-estradiol [5]: maximally active

Structure (SMILES): C#C[C@]1(O)CC[C@H]2[C@@H]3CCc4cc(O)ccc4[C@H]3CC[C@@]21C [EE2, ethynyl estradiol, reference compound]
- Bone Density ([1]; Table 4 Experiment A, ovex rats, EE2 100 μg/kg oral): 202 ± 6 mg/cm/cm
- Bone Density ([1]; Table 4 Experiment B, ovex rats, EE2 100 μg/kg oral): 215 ± 11 mg/cm/cm
- Bone Density ([1]; Table 5, ovex rats, 100 μg/kg oral): 212 ± 10 mg/cm/cm
- prevention of bone loss (femur density), in words ([1]; ovariectomized rats): prevented this loss of bone in a dose dependent manner
- Bone Density ([1]; ovex rats, 100 μg/kg oral daily 35 days, five experiments accumulated, mean of thirty rats ± SEM (Table 2)): 210 ± 4 mg/cm/cm
- eosinophil infiltration into the stromal layer of the uterus, in words (ovariectomized rats; rat, in vivo): caused a large increase in eosinophil infiltration
- epithelial height, in words (ovariectomized rats; rat, in vivo, po): increased epithelial height to a thickness greater than intact rats
- uterine weight, in words [3]: approached those of the intact controls

Structure (SMILES): CC(C)(C)CC(=O)Oc1ccc(-c2sc3cc(OC(=O)CC(C)(C)C)ccc3c2C(=O)c2ccc(OCCN3CCCCC3)cc2)cc1 [Compound 10, 6-(3,3-Dimethylbutanoyloxy)-2-[4-(3,3-dimethylbutanoyloxy)-phenyl]benzo[b]thien-3-yl-[4-[2-(piperidin-1-yl)ethoxy]-phenyl]methanone Hydrochloride]
- inhibition in vivo at 1 mg/kg [1, 7]: 52%
- % Uterine Weight Gain ([2]; ovex rats, 1 mg/kg oral): 24%

Structure (SMILES): O=C(Oc1ccc(-c2sc3cc(OC(=O)c4ccc(F)cc4)ccc3c2C(=O)c2ccc(OCCN3CCCCC3)cc2)cc1)c1ccc(F)cc1 [Compound 2, 6-(4-Fluorobenzoyloxy)-2-[4-(4-fluorobenzoyloxy)-phenyl]-benzo[b]thien-3-yl-[4-[2-(piperidin-1-yl)ethoxy)-phenyl]-methanone Hydrochloride]
- inhibition in vivo at 1 mg/kg [1, 7]: 86%
- % Uterine Weight Gain ([2]; ovex rats, 1 mg/kg oral): 26%

Structure (SMILES): Cc1ccc(C(=O)Oc2ccc(-c3sc4cc(OC(=O)c5ccc(C)cc5)ccc4c3C(=O)c3ccc(OCCN4CCCCC4)cc3)cc2)cc1 [Compound 11, 6-(4-Methylbenzoyloxy)-2-[4-(4-methylbenzoyloxy)-phenyl]benzo[b]thien-3-yl[4-[2-(piperidin-1-yl)ethoxy]-phenyl]methanone Hydrochloride]
- inhibition in vivo at 1 mg/kg [1, 7]: 26%
- % Uterine Weight Gain ([2]; ovex rats, 1 mg/kg oral): 28%

Structure (SMILES): O=C(Oc1ccc(-c2sc3cc(OC(=O)c4ccccc4)ccc3c2C(=O)c2ccc(OCCN3CCCCC3)cc2)cc1)c1ccccc1 [Compound 12]
- % Inhibition of Bone Loss [1, 7]: 60%
- % Uterine Weight Gain ([3]; 1 mg/kg): 15%

Structure (SMILES): CCCC(=O)Oc1ccc(-c2sc3cc(OC(=O)CCC)ccc3c2C(=O)c2ccc(OCCN3CCCCC3)cc2)cc1 [Compound 6, 6-(n-Butanoyloxy)-2-[4-(n-butanoyloxy)phenyl]benzo[b]thien-3-yl-[4-[2-(piperidin-1-yl)ethoxy]phenyl]methanone Hydrochloride]
- inhibition in vivo at 1 mg/kg [1, 7]: 24%
- % Uterine Weight Gain ([2]; ovex rats, 1 mg/kg oral): 19%

Structure (SMILES): CCCCOC(=O)Oc1ccc(-c2sc3cc(OC(=O)OCCCC)ccc3c2C(=O)c2ccc(OCCN3CCCCC3)cc2)cc1.Cl [Compound 14, 6-(n-Butoxycarbonyloxy)-2-[4(n-butoxycarbonyloxy)phenyl]-benzo[b]thien-3-yl[4-[2-(piperidin-1-yl)ethoxy]phenyl]-methanone Hydrochloride]
- inhibition in vivo at 1 mg/kg [1, 7]: 121%
- % Uterine Weight Gain ([2]; ovex rats, 1 mg/kg oral): 32%

Structure (SMILES): CC(C)(C)C(=O)Oc1ccc(-c2sc3cc(OC(=O)C(C)(C)C)ccc3c2C(=O)c2ccc(OCCN3CCCCC3)cc2)cc1.Cl [Compound 8, 6-(2,2-Dimethylpropanoyloxy)-2-[4-(2,2-dimethyl-propanoyloxy)phenyl]benzo[b]thien-3-yl-[4-[2-(piperidin-1-yl)ethoxy]phenyl]methanone Hydrochloride]
- inhibition in vivo at 1 mg/kg [1, 7]: 66%
- % Uterine Weight Gain ([2]; ovex rats, 1 mg/kg oral): 24%

Structure (SMILES): CC/C(=C(\c1ccccc1)c1ccc(OCCN(C)C)cc1)c1ccccc1 [tamoxifen]
- Bone Density [1, 8]: 204 ± 7 mg/cm/cm
- prevention of bone loss (femur density), in words ([1]; ovariectomized rats): displayed the ability to prevent reduction of femur density
- Epithelial Height (ovariectomized rats): 2.58
- Myometrial Thickness (ovariectomized rats): 5.50
- Stromal Eosinophils (ovariectomized rats): 2.83
- Stromal Expansion (ovariectomized rats): 14.17
- eosinophil infiltration into the stromal layer of the uterus, in words (ovariectomized rats; ovariectomized rats): caused a significant increase
- thickness of the stroma and myometrium, in words (ovariectomized rats; ovariectomized rats): an increase in these measurements that was much less than the effect of estrogen
- epithelial height, in words (ovariectomized rats; ovariectomized rats, oral): increased epithelial height equal to that of an intact rat
- increase in epithelial height over the response seen with raloxifene (ovariectomized rats; ovariectomized rats, all doses given): six-fold
- inhibition of bone loss [6]: has been shown to inhibit bone loss
- Uterine Weight [2, 8]: 216 ± 18 mg
- uterine weight, in words ([2]; ovariectomized rats, oral): only modest uterotrophic activity

Structure (SMILES): O=C(Oc1ccccc1)Oc1ccc(-c2sc3cc(OC(=O)Oc4ccccc4)ccc3c2C(=O)c2ccc(OCCN3CCCCC3)cc2)cc1 [Compound 16, 6-(Phenyloxycarbonyloxy)-2-[4(phenyloxycarbonyloxy)phenyl]-benzo[b]thien-3-yl[4-[2-(piperidin-1-yl)ethoxy]phenyl]-methanone hydrochloride]
- inhibition in vivo at 1 mg/kg [1, 7]: 108%
- % Uterine Weight Gain ([2]; ovex rats, 1 mg/kg oral): 25%
